# In article PMC8625559 (Pharmaceutics, 2021):
# Columns and labels:
# [1] = logP by shake-flask method, octanol/water; format: physicochemical; details: 25.0 °C
# Method: Two parallel experiments were carried out. Four different phase ratios of octanol:water (1:50, 1:75, 1:100, 1:125) were applied. The equilibration time was 1 h (Lauda M2OS, shaking thermostat Königshofen, Germany), and the phases were separated by centrifugation. The concentration decrease in the sample in the aqueous phase was detected by UV spectroscopy (Jasco V-550 UV/VIS spectrophotometer, Easton, MD, USA) measuring the absorbance before and after the partition at λmax = 280 nm. The logP value was calculated from the equation:(1) logP=log[A0−A1/A1(Vaq/Voct)] where A0 and A1 represent the absorbance value at the absorption maximum of the compound in the aqueous phase before and after partition.
# [2] = Stability in buffer solutions (LC/MS-MS method validation); format: physicochemical; details: spiked at 426 and 21.5 ng/mL
# Method: The specificity of the analytical method was controlled with blank (NaCl, 9 g/L) solution (Merck, Darmstadt Germany). The limit of quantitation (LoQ) was 2.43 ng/mL. Linearity was determined between the LoQ and 1000 ng/mL, with accuracy below ±15%, except at the LoQ, which was below ± 20%. Accuracy and precision were determined at least at two quality control (QC) theoretical concentrations: low (around 20 ng/mL) and middle (around 300 ng/mL). All QCs remained within the acceptance criteria (accuracy < ±15%). Matrix effects and stability in buffer solutions and buffer supplemented with pig skin were evaluated at two concentrations (426 and 21.5 ng/mL) in triplicate by spiking buffer solutions containing known amounts of chemical. […] A matrix effect was observed; therefore, all calibrations for this chemical were carried out in the matrix.
# [3] = Penetration kinetics across pig ear skin; format: in vitro ADME
# Method: Before use, hairs were shaved from the pig ear skin using an electric razor, and the skin thickness was adjusted between 700 and 1200 µm. This size range was achieved by cutting the dermis below hair follicle. The integrity of the skin was tested according to the Trans-Epidermal Water Loss (TEWL) method using a Delfin device.
# After topical application of the test chemical (infinite dose, 1.13 mL/cm^2), the concentration of the chemical in the receptor fluid was measured by sampling 200 µL of receptor fluid and replacing it with fresh fluid on an hourly basis, up to 16 h.
# The kinetic samples were directly injected into an LC/MS-MS system (Shimadzu Nexera LC system, Shimadzu, Kyoto, Japan) coupled with a mass spectrometer API 3500 (Sciex, Framingham, MA, USA). The analytical system was managed by Analyst v.1.6 software (Sciex, Framingham, MA, USA). The analytical column used was a Kinetex C18 from Phenomenex™ (Torrance, CA, USA) (50 × 2.0 mm, dp. 2.6 µm), and analysis was carried out with a gradient elution with mobile phases of 20 mM ammonium acetate (A) and acetonitrile (B). The column temperature was fixed at 50 °C, and the volume of the injection was 10 µL with a flow rate of 0.8 mL/min. The ionisation mode used was electrospray negative.
# The calculation was carried out using GraphPad PrismT v.7 (GraphPad Software Inc., San Diego, CA, USA).
# [4] = design: method as in L'Oréal Laboratories; details: AH/A−; ref L'Oréal Laboratories; cited from earlier work
# [5] = Skin-PAMPA permeability of PER in different solvents; format: in vitro ADME
# Method: Skin PAMPA™ sandwiches and stirring bars (P/N: 110211) were supplied by Pion Inc™. UV plates (UV-star microplate, clear, flat bottom, half area) were from Greiner Bio-one™ (Kremsmünster, Austria). Membranes were hydrated overnight with standard hydration solution (Pion Inc™., product number 120706). […] The acceptor (lower) plate contained 180 μL Prisma buffer pH 7.4 and a magnetic stirrer in each well. The PAMPA™ sandwich was incubated at 32 °C in a Gut-Box™ (from Pion Inc™). Stirring bars were applied in every well to avoid the effect of the unstirred water layer. The acceptor solution was sampled after 7.5, 15, 30, 60, 120, 240 and 360 min incubation. After each individual incubation period, 150 µL from the acceptor compartment was transferred to UV plates. The acceptor phase was replaced with fresh buffer solution.
# The flux (J) was obtained as the slope of the permeability profile and expressed in µg/cm^2 × h units. For the linear regression analysis, the linear range of incubation period from 0 to 30 min was selected and used for calculation of flux of the model compound. Permeability coefficient Pm […] was calculated from the equation:Pm= J/CD(2) where CD is the donor phase concentration.
# [6] = design: method as in PMID 25957747; details: aqueous solution, untreated Skin-PAMPA plates; cited from earlier work
# [7] = Skin-PAMPA membrane integrity study with piroxicam as model permeant; format: in vitro ADME; details: piroxicam from aqueous solution; membranes pre-treated 7 h with each of 13 solvents
# Method: Possible disruption by solvents of the integrity of the biomimetic artificial membrane was investigated. Wells were filled with each solvent and incubated over a longer (minimum 7 h) incubation time than the duration of the tests with the model solutions. The solvents were aspirated from the wells, and the residue from the surface of the membrane was removed gently with cotton paper. A standard skin permeability assay was then performed using piroxicam as the model permeant, for which precise previous data are available. The logPm values were compared with the reference value from untreated plates.
# [8] = PER in S4 Dimethylisosorbide, CD 60 mg/mL
# [9] = PER in S5 Water/ethanol 80:20 (w/w), CD 8 mg/mL
# [10] = PER in S6 Water/dimethylisosorbide 90:10 (w/w), CD 1 mg/mL
# [11] = PER in S7 Propylene glycol, CD 350 mg/mL
# [12] = PER in S8 Water:propylene glycol 80:20 (w/w), CD 51 mg/mL
# [13] = PER in S10 Capric/caprylic triglycerides, CD 75 mg/mL
# [14] = PER in S2 Ethanol, CD 500 mg/mL
# [15] = PER in S4 Dimethylisosorbide, CD 70 mg/mL
# [16] = PER in S5 Water/ethanol 80:20 (w/w), CD 10 mg/mL
# [17] = PER in S7 Propylene glycol, CD 500 mg/mL
# [18] = PER in S8 Water:propylene glycol 80:20 (w/w), CD 10 mg/mL
# [19] = PER in S9 Water/propylenglycol/ethanol 10:30:60 (w/w/w), CD 500 mg/mL
# [20] = PER in S10 Capric/caprylic triglycerides, CD 70 mg/mL
# [21] = PER in S11 Octyl dodecanol, CD 1 mg/mL
# [22] = PER in S12 Apricot kernel oil, CD 1 mg/mL
# [23] = PER in S13 Corn oil, CD 1 mg/mL
compound,measurement,setting,value
4-phenylethyl-resorcinol [PER],logP,[1],2.98 ^1
same,stability in buffer solutions spiked with PER,[2],98.3 ± 7.0%
same,J (flux),"[3]; PER in S1 Water, CD 1 mg/mL",25 ± 9.6 µg/cm^2 × h
same,Permeated Amount (16 h),"[3]; PER in S1 Water, CD 1 mg/mL",261 ± 100 µg/cm^2
same,logKp,"[3]; PER in S1 Water, CD 1 mg/mL",−1.71 ± 0.32
same,Permeated Amount (16 h),"[3]; PER in S2 Ethanol, CD […]",98 ± 67 µg/cm^2
same,J (flux),[3]; [8],0.08 ± 0.024 µg/cm^2 × h
same,logKp,[3]; [8],−5.88 ± 0.19
same,J (flux),[3]; [9],61 ± 18 µg/cm^2 × h
same,Permeated Amount (16 h),[3]; [9],515 ± 203 µg/cm^2
same,logKp,[3]; [9],−1.97 ± 0.34
same,J (flux),[3]; [10],7.5 ± 3 µg/cm^2 × h
same,Permeated Amount (16 h),[3]; [10],100 ± 37 µg/cm^2
same,logKp,[3]; [10],−2.16 ± 0.26
same,J (flux),[3]; [11],20 ± 17.6 µg/cm^2 × h
same,Permeated Amount (16 h),[3]; [11],147 ± 120 µg/cm^2
same,logKp,[3]; [11],−4.24 ± 0.81
same,J (flux),[3]; [12],98 ± 50 µg/cm^2 × h
same,Permeated Amount (16 h),[3]; [12],516 ± 109 µg/cm^2
same,logKp,[3]; [12],−1.72 ± 0.34
same,Permeated Amount (16 h),"[3]; PER in S9 Water/propylenglycol/ethanol 10:30:60 (w/w/w), CD […]",320 ± 149 µg/cm^2
same,J (flux),[3]; [13],8 ± 3.5 µg/cm^2 × h
same,Permeated Amount (16 h),[3]; [13],54 ± 34 µg/cm^2
same,logKp,[3]; [13],−3.97 ± 0.29
same,pKa,[4],9.77–10.77 (AH/A^−) ^2
same,J (flux),"[5]; PER in S1 Water, CD 1 mg/mL",72.4 ± 7.8 µg/cm^2 × h
same,Lag Time,"[5]; PER in S1 Water, CD 1 mg/mL",1.4 min
same,Permeated Amount (6 h),"[5]; PER in S1 Water, CD 1 mg/mL",169 ± 4 µg/cm^2
same,logPm,"[5]; PER in S1 Water, CD 1 mg/mL",−1.12 ± 0.06
same,J (flux),[5]; [14],"12,033 ± 252 µg/cm^2 × h"
same,Lag Time,[5]; [14],0.0 min
same,Permeated Amount (6 h),[5]; [14],"13,575 ± 1710 µg/cm^2"
same,logPm,[5]; [14],−1.62 ± 0.01
same,J (flux),"[5]; PER in S3 Glycerol, CD 5 mg/mL",137 ± 22 µg/cm^2 × h
same,Lag Time,"[5]; PER in S3 Glycerol, CD 5 mg/mL",5.5 min
same,Permeated Amount (6 h),"[5]; PER in S3 Glycerol, CD 5 mg/mL",869 ± 112 µg/cm^2
same,logPm,"[5]; PER in S3 Glycerol, CD 5 mg/mL",−1.57 ± 0.07
same,J (flux),[5]; [15],209 ± 53 µg/cm^2 × h
same,Lag Time,[5]; [15],3.6 min
same,Permeated Amount (6 h),[5]; [15],1342 ± 298 µg/cm^2
same,logPm,[5]; [15],−2.54 ± 0.13
same,J (flux),[5]; [16],589 ± 25 µg/cm^2 × h
same,Lag Time,[5]; [16],0.9 min
same,Permeated Amount (6 h),[5]; [16],1662 ± 169 µg/cm^2
same,logPm,[5]; [16],−1.23 ± 0.03
same,J (flux),[5]; [10],76.4 ± 15.2 µg/cm^2 × h
same,Lag Time,[5]; [10],0.0 min
same,Permeated Amount (6 h),[5]; [10],175 ± 22 µg/cm^2
same,logPm,[5]; [10],−1.13 ± 0.07
same,J (flux),[5]; [17],2118 ± 502 µg/cm^2 × h
same,Lag Time,[5]; [17],3.8 min
same,Permeated Amount (6 h),[5]; [17],"11,142 ± 729 µg/cm^2"
same,logPm,[5]; [17],−2.38 ± 0.11
same,J (flux),[5]; [18],570 ± 5 µg/cm^2 × h
same,Lag Time,[5]; [18],1.1 min
same,Permeated Amount (6 h),[5]; [18],1772 ± 98 µg/cm^2
same,logPm,[5]; [18],−1.24 ± 0.01
same,J (flux),[5]; [19],"10,846 ± 326 µg/cm^2 × h"
same,Lag Time,[5]; [19],1.4 min
same,Permeated Amount (6 h),[5]; [19],"14,926 ± 2431 µg/cm^2"
same,logPm,[5]; [19],−1.66 ± 0.01
same,J (flux),[5]; [20],377 ± 36 µg/cm^2 × h
same,Lag Time,[5]; [20],3.0 min
same,Permeated Amount (6 h),[5]; [20],749 ± 92 µg/cm^2
same,J (flux),[5]; [21],7.18 ± 1.6 µg/cm^2 × h
same,Lag Time,[5]; [21],3.9 min
same,Permeated Amount (6 h),[5]; [21],19 ± 0.4 µg/cm^2
same,J (flux),[5]; [22],2.45 ± 0.57 µg/cm^2 × h
same,Lag Time,[5]; [22],3.3 min
same,Permeated Amount (6 h),[5]; [22],13 ± 1.9 µg/cm^2
same,logPm,[5]; [22],−2.63 ± 0.07
same,J (flux),[5]; [23],3.26 ± 0.41 µg/cm^2 × h
same,Lag Time,[5]; [23],1.4 min
same,Permeated Amount (6 h),[5]; [23],13 ± 1.3 µg/cm^2
same,logPm,[5]; [23],−2.48 ± 0.06
same,calculated lag times,[5]; span over all 13 solvents,0 to 6 min
CN1C(C(=O)Nc2ccccn2)=C(O)c2ccccc2S1(=O)=O [piroxicam],reference logPm of piroxicam,[6],−4.98 ± 0.01
same,"logPm of piroxicam, mean across solvent-treated membranes",[7],−4.25 ± 0.30
